Data published in US9023789B2, “Amylin analogs and pharmaceutical compositions thereof” (Novo Nordisk A/S, priority 2012, dated 2015).

Experiments:
[1] = target: T1, human amylin 3(a) receptor (human calcitonin receptor + RAMP-3) in BHK570 cells (Homo sapiens, UniProt O60896+P30988); assay: ASSAY (II)a functional assay, human amylin receptor (CRE luciferase); format: cell-based
T1 construct: expressed in transfected cells
Outline: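 BHK CRE-luc cells, calcitonin (a) receptor ± RAMP-3 (amylin 3(a)); overnight seeding, 37° C/5% CO2. 3 h ligand exposure, DMEM/10% FBS/10 mM Hepes pH 7.4. LucLite 30 min RT; luminescence (SPC).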

[2] = target: T2, human amylin receptor (membranes from Amylin 3(a)/CRE-luc cells) (Homo sapiens, UniProt O60896+P30988); assay: ASSAY (V) binding to the human amylin receptor (SPA, 125I-rat amylin);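 further: competition binding of cell membranes (35 ng/µL) mixed with SPA beads in 384-well plates at 40 µL total volume, read by scintillation counting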
T2 construct: expressed in transfected cells
T2 sequence (P30988 25-474): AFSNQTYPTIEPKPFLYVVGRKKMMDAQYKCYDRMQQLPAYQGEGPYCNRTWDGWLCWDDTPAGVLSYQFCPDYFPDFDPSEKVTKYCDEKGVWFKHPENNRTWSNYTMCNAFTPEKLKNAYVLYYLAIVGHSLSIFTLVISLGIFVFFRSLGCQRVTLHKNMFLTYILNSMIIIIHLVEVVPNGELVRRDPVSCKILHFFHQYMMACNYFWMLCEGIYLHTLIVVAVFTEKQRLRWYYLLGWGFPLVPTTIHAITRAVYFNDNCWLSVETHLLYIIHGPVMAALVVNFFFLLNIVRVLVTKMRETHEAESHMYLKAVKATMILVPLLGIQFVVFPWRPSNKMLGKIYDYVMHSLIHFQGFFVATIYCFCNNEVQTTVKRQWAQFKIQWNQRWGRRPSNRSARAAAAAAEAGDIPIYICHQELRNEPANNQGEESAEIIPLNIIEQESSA
T2 sequence (O60896 24-148 partner): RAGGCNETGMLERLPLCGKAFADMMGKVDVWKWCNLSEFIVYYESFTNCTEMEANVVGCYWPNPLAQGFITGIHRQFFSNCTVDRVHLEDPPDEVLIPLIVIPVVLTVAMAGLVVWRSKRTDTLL

[3] = ASSAY (III) ThT fibrillation assay for physical stability; format: physicochemical
Outline: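 Formulations with 1 μM ThT, pH adjusted as required, incubated at 37 °C with 960 rpm orbital shaking; fluorescence (ex 444/em 485 nm) read every 20 min. Fibrillation reported as mean ThT fluorescence ± SD of 4–8 replicates at time points; polypeptide concentration measured by reverse-phase HPLC before and after, post-centrifugation.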

[4] = hCTR funct. EC50 divided by hAmylin-R funct. EC50
[5] = hCTR funct. EC50 over hAmylin-R funct. EC50
[6] = human functional selectivity: hCTR funct. EC50 / hAmylin-R funct. EC50
[7] = Table 5, selectivity, hCTR bind IC50 / hAmylin-R bind IC50
[8] = Table 5a, selectivity, hCTR bind IC50 / hAmylin-R bind IC50
[9] = Table 5b, selectivity, hCTR bind IC50 / hAmylin-R bind IC50
[10] = Table 5c, selectivity, hCTR bind IC50 / hAmylin-R bind IC50
[11] = Table 7, human binding selectivity, included for comparison
[12] = Table 7a (preferred compounds), human binding selectivity, included for comparison
[13] = ratio of human calcitonin receptor binding IC50 to human amylin receptor binding IC50

Ratio hCT/hAmylin funct. [1, 4] | Ratio hCT/hAmylin funct. [1, 5] | Ratio hCT/hAmylin funct. [1, 6] | Ratio hCT/hAmylin binding [2, 7] | Ratio hCT/hAmylin binding [2, 8] | Ratio hCT/hAmylin binding [2, 9] | Ratio hCT/hAmylin binding [2, 10] | Ratio hCT/hAmylin binding [2, 11] | Ratio hCT/hAmylin binding [2, 12] | Ratio hCT/hAmylin binding [2, 13] | ThT pH 4.0 lag time (h) [3] [h] | SMILES
65.1 | 65.1 | 65.1 | 18.5 | 18.5 | 18.5 | 18.5 | 18.5 | 18.5 | 18.5 | 10 | CC[C@H](C)[C@H](NC(=O)[C@H](C)NC(=O)CNC(=O)[C@H](Cc1ccccc1)NC(=O)[C@H](CC(N)=O)NC(=O)[C@@H]1CCCN1C(=O)[C@H](CO)NC(=O)[C@H](CO)NC(=O)[C@H](Cc1c[nH]cn1)NC(=O)[C@H](CCCNC(=N)N)NC(=O)[C@H](CC(C)C)NC(=O)[C@H](Cc1ccccc1)NC(=O)[C@H](CC(N)=O)NC(=O)[C@H](C)NC(=O)[C@H](CC(C)C)NC(=O)[C@H](CCCNC(=N)N)NC(=O)[C@H](CCC(N)=O)NC(=O)[C@@H](NC(=O)[C@H](C)NC(=O)[C@@H]1CSSC[C@H](NC(=O)[C@@H](N)CCCCNC(=O)CC[C@H](NC(=O)CCCCCCCCCCCCCCC(=O)O)C(=O)O)C(=O)N[C@@H](CC(N)=O)C(=O)N[C@@H]([C@@H](C)O)C(=O)N[C@@H](C)C(=O)N[C@@H]([C@@H](C)O)C(=O)N1)[C@@H](C)O)C(=O)N1CCC[C@H]1C(=O)N[C@@H](CO)C(=O)N[C@@H](CO)C(=O)N[C@H](C(=O)N[C@@H](CC(N)=O)C(=O)N[C@H](C(=O)NCC(=O)N[C@@H](Cc1c[nH]cn1)C(=O)N[C@@H](CC(N)=O)C(=O)N[C@H](C(=O)N[C@@H](Cc1ccc(O)cc1)C(N)=O)[C@@H](C)O)C(C)C)[C@@H](C)O [Example 111]
38.8 | 38.8 | 38.8 | 23.5 | 23.5 | 23.5 | 23.5 | 23.5 | 23.5 | 23.5 | 30 | CC[C@H](C)[C@H](NC(=O)[C@H](C)NC(=O)CNC(=O)[C@H](Cc1ccccc1)NC(=O)[C@H](CC(N)=O)NC(=O)[C@@H]1CCCN1C(=O)[C@H](CO)NC(=O)[C@H](CO)NC(=O)[C@H](Cc1c[nH]cn1)NC(=O)[C@H](CCCNC(=N)N)NC(=O)[C@H](CC(C)C)NC(=O)[C@H](Cc1ccccc1)NC(=O)[C@H](CC(N)=O)NC(=O)[C@H](C)NC(=O)[C@H](CC(C)C)NC(=O)[C@H](CCCNC(=N)N)NC(=O)[C@H](CCC(N)=O)NC(=O)[C@@H](NC(=O)[C@H](C)NC(=O)[C@@H]1CSSC[C@H](NC(=O)[C@@H](N)CCCCNC(=O)CC[C@H](NC(=O)CCCCCCCCCCCCC(=O)O)C(=O)O)C(=O)N[C@@H](CC(N)=O)C(=O)N[C@@H]([C@@H](C)O)C(=O)N[C@@H](C)C(=O)N[C@@H]([C@@H](C)O)C(=O)N1)[C@@H](C)O)C(=O)N1CCC[C@H]1C(=O)N[C@@H](CO)C(=O)N[C@@H](CO)C(=O)N[C@H](C(=O)N[C@@H](CC(N)=O)C(=O)N[C@H](C(=O)NCC(=O)N[C@@H](Cc1c[nH]cn1)C(=O)N[C@@H](CC(N)=O)C(=O)N[C@H](C(=O)N[C@@H](Cc1ccc(O)cc1)C(N)=O)[C@@H](C)O)C(C)C)[C@@H](C)O [Example 112]
